From patent US9796907B2, “Invert emulsion gravel pack fluid and method” (Halliburton Energy Services, Inc., priority 2013, dated 2017)

Tested on: marine juvenile fish Cyprinodont varieties
Assay: Ecotoxicity to marine juvenile fish
Format: in vivo
Source text: In addition, the fluid of the disclosure should have an acceptable health, safety, and environmental profile. The dimer diamine (or fatty acid dimer diamine) and polyurea components comprising the suspension agent are environmentally compatible.

SMILES: CCCCCCCCCC(CCCCCCCCN)C(CCCCCCCC)CCCCCCCCCN (stereo not shown) [fatty acid dimer diamine, C36 fatty dimer diamine]
- ecotoxicity to marine juvenile fish: low ecotoxicity
